Starred links: 1 amine or outer side, 2 acyl side, 3 side chain; linkers in the order of their positions; H or OH if unused. Positions of bridges follow the written chain, without caps; N, C: chain ends. Non-standard residues stand in square brackets, D forms with d. Residues, ends and D or L forms follow the SMILES beside them. X1 = CC1(C)C(/C=C/C=C/C=C/C=C2/N(CCC(=O)[*:2])c3ccc4ccccc4c3C2(C)C)=[N+](CCC(=O)[*:1])c2ccc3ccccc3c21
Assays:
[1] = system: CA20948 tumor-bearing mice; assay: Contrast agent-mediated optical imaging / biodistribution in tumor (CA20948) bearing mice; assay type: in vivo; details: 0.5 mL of a 1 μM solution via lateral tail vein
From the text: The instrument consists of an excitation source and a charge-coupled device (CCD) camera for signal detection. To image compounds such as compound 18 that absorb and emit radiation in the near infrared region, a nominal 780 nm collimated solid state laser source was used to excite the compounds. The nominal 50 mW of incident power from the laser was reduced to about 20 mW at the output of the fiber optic bundle. A CCD camera (12 bit, 1024×1024 pixel, back illuminated) was equipped with the appropriate interference filter to capture the emitted photons at 830 nm. Biodistribution of the dyes and receptor-specific optical contrast agent in mice were performed by injecting 0.5 mL of a 1 μM solution of the compound via the lateral tail vein of tumor (CA20948) bearing mice. […] In contrast, injection of somatostatin-avid optical probes in CA20948 tumor-bearing mice preferentially accumulates in the tumor.

SSTR2 = target: T1, SSTR2 (Rattus norvegicus, UniProt P30680); assay: Receptor binding affinity: competition with 111In-DTPA-octreotide in AR42J tumor cell membranes; details: 37° C., 2 h, radioligand 111In-DTPA-octreotide, read-out: IC50 relative to 111In-DTPA-octreotide
T1 construct: A preparation of cell membranes was made from AR42J cells by brief sonication; endogenous in cells; host or cells: AR42J rat pancreatic carcinoma cells (membrane preparation)
Method: The binding affinity of somatostatin analogues was carried out using ^111In-DTPA-octreotide in AR42J tumor cells according to previously reported methods with minor modifications (Lewis, J. S., Lewis, M. R., Srinivasan, A., Schmidt, M. A., Wang, J., and Anderson, C. J. (1999) Comparison of Four ^64Cu-labeled Somatostatin Analogs in vitro and in a Tumor-bearing Rat Model: Evaluation of New Derivatives for PET Imaging and Targeted Radiotherapy. J. Med. Chem. 42, 1.341-1347). The AR42J rat pancreatic carcinoma cell line is known to express SSTR2 both in vitro and in vivo ((Rosewicz, S., Vogt, D., Harth, N., Grund, C., Franke, W. W., Ruppert, S., Schweitzer, E., Riecken, E.-O., and Wiedenman, B. (1992) An Amphicrine Pancreatic Cell Line: AR42J Cells Combine Exocrine and Neuroendocrine Properties. Eur. J. Cell Biol. 59, 80-91; Christophe, J. (1994) Pancreatic Tumoral Cell Line AR42J: An Amphicrine Model. Am. J.
Physiol. (Gastrointest. Liver Physiol.) 266 (29), G963-G971). […] The filters containing membrane-bound radioactivity were removed from the assay plate and counted using a Beckman 8000 automated well-typed counter (Fullerton, Calif.). Specific binding was calculated by subtracting the non-specifically bound radioactivity from that of total binding. The best-fit IC50 values were calculated using PRISM™ (Graphpad, San Diego, Calif.). […]

T1 sequence (P30680 whole entry): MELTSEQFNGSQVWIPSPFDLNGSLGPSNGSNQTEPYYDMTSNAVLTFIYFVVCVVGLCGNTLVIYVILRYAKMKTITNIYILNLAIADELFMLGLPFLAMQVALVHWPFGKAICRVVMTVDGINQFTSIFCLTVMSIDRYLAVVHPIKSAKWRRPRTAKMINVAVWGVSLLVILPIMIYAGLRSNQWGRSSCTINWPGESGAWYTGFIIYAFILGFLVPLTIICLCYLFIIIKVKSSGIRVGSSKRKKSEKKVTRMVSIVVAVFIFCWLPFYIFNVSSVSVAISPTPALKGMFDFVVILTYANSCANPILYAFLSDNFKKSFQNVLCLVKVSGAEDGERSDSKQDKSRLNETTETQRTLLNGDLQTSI

Row | Compound | time to clearance from the blood postinjection [1] | biodistribution: site of accumulation ([1]; optical imaging 780 nm excitation / 830 nm emission) | IC50 (SSTR2)
1 | CC1(C)C(/C=C/C=C/C=C/C=C2/N(CCC(=O)O)c3ccc4ccccc4c3C2(C)C)=[N+](CCC(=O)O)c2ccc3ccccc3c21 [Compound 2, Bispropylcarboxymethylindocyanine Dye] | ≤ 1 h | accumulates in the liver | –
2 | C[C@@H](O)[C@@H]1NC(=O)[C@@H]2CSSC[C@H](NC(=O)[C@@H](Cc3ccccc3)NC(=O)CC[N+]3=C(/C=C/C=C/C=C/C=C4/N(CCC(=O)NCCCC[C@@H](C(N)=O)NC1=O)c1ccc5ccccc5c1C4(C)C)C(C)(C)c1c3ccc3ccccc13)C(=O)N[C@@H](Cc1ccc(O)cc1)C(=O)N[C@H](Cc1c[nH]c3ccccc13)C(=O)N[C@@H](CCCCN)C(=O)N[C@@H]([C@@H](C)O)C(=O)N2 [Compound 18] ([dF]CY[dW]KTCTK-NH2; disulfide 2-7; linker N-9 via X1) | – | – | 8.17 nM
